Results as given in patent publication US20250115600A1, “COVALENT MODIFIERS OF AKT1 AND USES THEREOF” (Terremoto Biosciences, Inc., priority 2022, published 2025).

How the values were obtained:
Experiment in all cases: Live cell target engagement (NanoBRET) in HEK293 cells
Assay type in all cases: cell-based
AKT1 E17K = AKT1 E17K (Homo sapiens (Human), UniProt P31749, E17K); settings: for IC50: HEK293, 2 hours at 37° C.
AKT2 = AKT2 (Homo sapiens (Human), UniProt P31751); settings: HEK293, 2 hours at 37° C.
Chain of AKT2 (P31751 whole entry): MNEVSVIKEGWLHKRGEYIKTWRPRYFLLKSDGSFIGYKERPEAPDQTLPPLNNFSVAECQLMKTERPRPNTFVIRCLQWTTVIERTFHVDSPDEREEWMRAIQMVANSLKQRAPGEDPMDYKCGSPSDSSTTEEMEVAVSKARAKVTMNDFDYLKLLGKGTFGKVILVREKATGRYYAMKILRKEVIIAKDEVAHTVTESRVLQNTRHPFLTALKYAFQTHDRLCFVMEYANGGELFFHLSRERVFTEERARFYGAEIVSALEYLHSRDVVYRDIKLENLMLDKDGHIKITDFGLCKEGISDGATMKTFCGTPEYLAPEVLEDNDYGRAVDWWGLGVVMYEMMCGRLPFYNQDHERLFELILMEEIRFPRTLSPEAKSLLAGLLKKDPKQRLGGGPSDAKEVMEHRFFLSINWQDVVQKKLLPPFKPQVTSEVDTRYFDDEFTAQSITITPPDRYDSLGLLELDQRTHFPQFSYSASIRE

AKT1 WT = AKT1 WT (Homo sapiens (Human), UniProt P31749); settings: HEK293, 2 hours at 37° C.
Chain of AKT1 WT (P31749 whole entry): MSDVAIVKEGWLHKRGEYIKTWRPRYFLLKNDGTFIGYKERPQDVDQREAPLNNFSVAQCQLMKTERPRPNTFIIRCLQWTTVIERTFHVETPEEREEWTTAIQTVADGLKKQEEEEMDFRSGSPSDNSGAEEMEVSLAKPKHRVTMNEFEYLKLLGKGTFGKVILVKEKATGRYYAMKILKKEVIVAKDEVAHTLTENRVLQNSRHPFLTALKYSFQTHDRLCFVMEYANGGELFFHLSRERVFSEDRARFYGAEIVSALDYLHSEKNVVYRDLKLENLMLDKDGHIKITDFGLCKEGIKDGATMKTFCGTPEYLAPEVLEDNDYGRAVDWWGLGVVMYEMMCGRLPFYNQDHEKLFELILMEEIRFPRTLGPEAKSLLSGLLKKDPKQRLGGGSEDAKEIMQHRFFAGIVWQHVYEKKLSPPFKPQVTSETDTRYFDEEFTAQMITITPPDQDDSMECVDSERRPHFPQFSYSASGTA

Chain of AKT1 E17K (P31749 whole entry E17K): as the sequence (P31749 whole entry) above, with E17K counted along it

| SMILES | AKT1 E17K IC50: Selectivity vs AKT1 WT (AKT1 E17K) | AKT1 E17K IC50: Selectivity vs AKT2 (AKT1 E17K) | IC50 (AKT1 E17K) [nM] | IC50 (AKT2) [nM] | IC50 (AKT1 WT) [nM] |
| --- | --- | --- | --- | --- | --- |
| Nc1ncccc1-c1nc2ccc(-c3ccccc3)nc2n1-c1ccc(C2(NCCc3ccc(C=O)c(O)c3)CCC2)cc1 [Compound 134, 4-(2-((1-(4-(2-(2-aminopyridin-3-yl)-5-phenyl-3H-imidazo[4,5-b]pyridin-3-yl)phenyl)cyclobutyl)amino)ethyl)-2-hydroxybenzaldehyde] | 2.3 | 4.3 | > 500 | > 500 | > 500 |
| CC(=O)Nc1cccc(-c2ccc3nc(-c4cccnc4N)n(-c4ccc(CNC(=O)Cc5ccc(C=O)c(O)c5)cc4)c3n2)c1 [Example 2, N-(4-(5-(3-acetamidophenyl)-2-(2-aminopyridin-3-yl)-3H-imidazo[4,5-b]pyridin-3-yl)benzyl)-2-(4-formyl-3-hydroxyphenyl)acetamide] | 3.1 | 19 | < 100 | > 500 | 100 to 500 |
| Nc1ncccc1-c1nc2ccc(N3CCOCC3)nc2n1-c1ccc(CNC(=O)c2ccc(O)c(C=O)c2)cc1 [Example 3, N-(4-(2-(2-aminopyridin-3-yl)-5-morpholino-3H-imidazo[4,5-b]pyridin-3-yl)benzyl)-3-formyl-4-hydroxybenzamide] | 2.2 | 36 | 100 to 500 | > 500 | 100 to 500 |
| Nc1ncccc1-c1nc2ccc(-c3ccccc3)nc2n1-c1ccc(CNC(=O)c2cc(C=O)c(O)cc2F)cc1 [Example 4, N-({4-[2-(2-aminopyridin-3-yl)-5-phenylimidazo[4,5-b]pyridin-3-yl]phenyl}methyl)-2-fluoro-5-formyl-4-hydroxybenzamide] | 2 | 38 | < 100 | > 500 | < 100 |
| Nc1ncccc1-c1nc2ccc(-c3ccccc3)nc2n1-c1ccc(CNC(=O)Cc2ccc(C=O)c(O)c2C(F)(F)F)cc1 [Example 5, N-(4-(2-(2-aminopyridin-3-yl)-5-phenyl-3H-imidazo[4,5-b]pyridin-3-yl)benzyl)-2-(4-formyl-3-hydroxy-2-(trifluoromethyl)phenyl)acetamide] | 2.9 | 32 | < 100 | > 500 | < 100 |
| Nc1ncccc1-c1nc2ccc(C3CC3C(=O)N3CCOCC3)nc2n1-c1ccc(CNC(=O)Cc2ccc(C=O)c(O)c2)cc1 (stereo not drawn) [Example 6, N-({4-[2-(2-aminopyridin-3-yl)-5-[2-(morpholine-4-carbonyl)cyclopropyl]imidazo[4,5-b]pyridin-3-yl]phenyl}methyl)-2-(4-formyl-3-hydroxyphenyl)acetamide] | 8.7 | 18 | 100 to 500 | > 500 | > 500 |
| Nc1ncccc1-c1nc2ccc(C(F)F)nc2n1-c1ccc(CNC(=O)Cc2ccc(C=O)c(O)c2)cc1 [Example 7, N-({4-[2-(2-aminopyridin-3-yl)-5-(difluoromethyl)imidazo[4,5-b]pyridin-3-yl]phenyl}methyl)-2-(4-formyl-3-hydroxyphenyl)acetamide] | 5.8 | 110 | < 100 | > 500 | 100 to 500 |
| Nc1ncccc1-c1nc2ccc(N3CC4CCC(C3)O4)nc2n1-c1ccc(CNC(=O)Cc2ccc(C=O)c(O)c2)cc1 [Example 8, N-({4-[2-(2-aminopyridin-3-yl)-5-{8-oxa-3-azabicyclo[3.2.1]octan-3-yl}imidazo[4,5-b]pyridin-3-yl]phenyl}methyl)-2-(4-formyl-3-hydroxyphenyl)acetamide] | 12 | 120 | < 100 | > 500 | 100 to 500 |
| Nc1ncccc1-c1nc2ccc(OC3CC3)nc2n1-c1ccc(CNC(=O)Cc2ccc(C=O)c(O)c2)cc1 [Example 10, N-({4-[2-(2-aminopyridin-3-yl)-5-cyclopropoxyimidazo[4,5-b]pyridin-3-yl]phenyl}methyl)-2-(4-formyl-3-hydroxyphenyl)acetamide] | 3.9 | 160 | < 100 | > 500 | < 100 |
| Nc1ncccc1-c1nc2ccc(-c3ccccc3)nc2n1-c1ccc(CC(=O)NC2(c3ccc(C=O)c(O)c3)CC2)cc1 [Example 11, 2-{4-[2-(2-aminopyridin-3-yl)-5-phenylimidazo[4,5-b]pyridin-3-yl]phenyl}-N-[1-(4-formyl-3-hydroxyphenyl)cyclopropyl]acetamide] | 3.1 | 28 | < 100 | 100 to 500 | < 100 |
| Nc1ncccc1-c1nc2ccc(-c3cccc(N4CCOCC4)c3)nc2n1-c1ccc(CNC(=O)c2cc(F)c(O)c(C=O)c2)cc1 [Example 12, N-(4-(2-(2-aminopyridin-3-yl)-5-(3-morpholinophenyl)-3H-imidazo[4,5-b]pyridin-3-yl)benzyl)-3-fluoro-5-formyl-4-hydroxybenzamide] | 1.5 | 5.2 | < 100 | 100 to 500 | < 100 |
| Nc1ncccc1-c1nc2ccc(-c3cccc(N4CCOCC4)c3)nc2n1-c1ccc(CNC(=O)Cc2ccc(C=O)c(O)c2Cl)cc1 [Example 13, N-({4-[2-(2-aminopyridin-3-yl)-5-[3-(morpholin-4-yl)phenyl]imidazo[4,5-b]pyridin-3-yl]phenyl}methyl)-2-(2-chloro-4-formyl-3-hydroxyphenyl)acetamide] | 1.2 | 3 | < 100 | < 100 | < 100 |
| Cc1c(CC(=O)NCc2ccc(-n3c(-c4cccnc4N)nc4ccc(-c5ccccc5)nc43)cc2)ccc(C=O)c1O [Example 14, N-({4-[2-(2-aminopyridin-3-yl)-5-phenylimidazo[4,5-b]pyridin-3-yl]phenyl}methyl)-2-(4-formyl-3-hydroxy-2-methylphenyl)acetamide] | 3.3 | 36 | < 100 | 100 to 500 | < 100 |
| Nc1ncccc1-c1nc2ccc(-c3ccccc3)nc2n1-c1ccc(CNC(=O)c2ccc(O)c(C=O)c2F)cc1 [Example 15, N-(4-(2-(2-aminopyridin-3-yl)-5-phenyl-3H-imidazo[4,5-b]pyridin-3-yl)benzyl)-2-fluoro-3-formyl-4-hydroxybenzamide] | 2 | 13 | < 100 | > 500 | 100 to 500 |

Further lines, results first:

| AKT1 E17K IC50: Selectivity vs AKT1 WT (AKT1 E17K) | AKT1 E17K IC50: Selectivity vs AKT2 (AKT1 E17K) | IC50 (AKT1 E17K) [nM] | IC50 (AKT2) [nM] | IC50 (AKT1 WT) [nM] | SMILES |
| --- | --- | --- | --- | --- | --- |
| 0.51 | 2.5 | < 100 | < 100 | < 100 | Nc1ncccc1-c1nc2ccc(-c3ccccc3)nc2n1-c1ccc(CNCCCc2ccc(O)c(C=O)c2)cc1 [Compound 129, 5-(3-((4-(2-(2-aminopyridin-3-yl)-5-phenyl-3H-imidazo[4,5-b]pyridin-3-yl)benzyl)amino)propyl)-2-hydroxybenzaldehyde] |
| 1.5 | 7 | < 100 | 100 to 500 | < 100 | Nc1ncccc1-c1nc2ccc(-c3ccccc3)nc2n1-c1ccc(CNCCCc2ccc(C=O)c(O)c2)cc1 [Compound 130, 4-(3-((4-(2-(2-aminopyridin-3-yl)-5-phenyl-3H-imidazo[4,5-b]pyridin-3-yl)benzyl)amino)propyl)-2-hydroxybenzaldehyde] |
| 1.6 | 13 | < 100 | 100 to 500 | < 100 | Nc1ncccc1-c1nc2ccc(-c3ccccc3)nc2n1-c1ccc(C(=O)NCCc2ccc(C=O)c(O)c2)cc1 [Compound 131, 4-(2-(2-aminopyridin-3-yl)-5-phenyl-3H-imidazo[4,5-b]pyridin-3-yl)-N-(4-formyl-3-hydroxyphenethyl)benzamide] |
| 0.16 | 0.72 | < 100 | < 100 | < 100 | Nc1ncccc1-c1nc2ccc(-c3ccccc3)nc2n1-c1ccc(CNCCc2ccc(O)c(C=O)c2)cc1 [Compound 135, 5-(2-((4-(2-(2-aminopyridin-3-yl)-5-phenyl-3H-imidazo[4,5-b]pyridin-3-yl)benzyl)amino)ethyl)-2-hydroxybenzaldehyde] |
| 1.3 | 1.9 | < 100 | < 100 | < 100 | Nc1ncccc1-c1nc2ccc(-c3ccccc3)nc2n1-c1ccc(CN2CCC(c3ccc(O)c(C=O)c3)CC2)cc1 [Compound 136, 5-(1-(4-(2-(2-aminopyridin-3-yl)-5-phenyl-3H-imidazo[4,5-b]pyridin-3-yl)benzyl)piperidin-4-yl)-2-hydroxybenzaldehyde] |
| 0.91 | 4.1 | < 100 | 100 to 500 | < 100 | Nc1ncccc1-c1nc2ccc(-c3ccccc3)nc2n1-c1ccc(C(=O)NCc2ccc(C=O)c(O)c2)cc1 [Compound 137, 4-(2-(2-aminopyridin-3-yl)-5-phenyl-3H-imidazo[4,5-b]pyridin-3-yl)-N-(4-formyl-3-hydroxybenzyl)benzamide] |
| 6.1 | 85 | < 100 | > 500 | < 100 | Nc1ncccc1-c1nc2ccc(-c3ccc(N4CCOCC4)cc3)nc2n1-c1ccc(CNC(=O)Cc2ccc(C=O)c(O)c2)cc1 [Example 1, N-(4-(2-(2-aminopyridin-3-yl)-5-(4-morpholinophenyl)-3H-imidazo[4,5-b]pyridin-3-yl)benzyl)-2-(4-formyl-3-hydroxyphenyl)acetamide] |
